The source of these data is patent US12590091B2, “1H-pyrrolo[3,2-C]pyridine and 1H-pyrrolo[2,3-C]pyridine derivatives as TLR9 inhibitors for the treatment of fibrosis” (BRISTOL-MYERS SQUIBB COMPANY, priority 2020, dated 2026).

pIC50: −log10 of the molar value.

By pIC50 is commonly meant the IC50 on a negative log10 scale, so that one unit is a factor of ten. A lower pIC50 goes with a high IC50.

One assay has as its target T1, human TLR9 (Homo sapiens, UniProt Q9NR96).
T1 construct: host or cells: HEK-Blue cells
T1 sequence (Q9NR96 26-1032): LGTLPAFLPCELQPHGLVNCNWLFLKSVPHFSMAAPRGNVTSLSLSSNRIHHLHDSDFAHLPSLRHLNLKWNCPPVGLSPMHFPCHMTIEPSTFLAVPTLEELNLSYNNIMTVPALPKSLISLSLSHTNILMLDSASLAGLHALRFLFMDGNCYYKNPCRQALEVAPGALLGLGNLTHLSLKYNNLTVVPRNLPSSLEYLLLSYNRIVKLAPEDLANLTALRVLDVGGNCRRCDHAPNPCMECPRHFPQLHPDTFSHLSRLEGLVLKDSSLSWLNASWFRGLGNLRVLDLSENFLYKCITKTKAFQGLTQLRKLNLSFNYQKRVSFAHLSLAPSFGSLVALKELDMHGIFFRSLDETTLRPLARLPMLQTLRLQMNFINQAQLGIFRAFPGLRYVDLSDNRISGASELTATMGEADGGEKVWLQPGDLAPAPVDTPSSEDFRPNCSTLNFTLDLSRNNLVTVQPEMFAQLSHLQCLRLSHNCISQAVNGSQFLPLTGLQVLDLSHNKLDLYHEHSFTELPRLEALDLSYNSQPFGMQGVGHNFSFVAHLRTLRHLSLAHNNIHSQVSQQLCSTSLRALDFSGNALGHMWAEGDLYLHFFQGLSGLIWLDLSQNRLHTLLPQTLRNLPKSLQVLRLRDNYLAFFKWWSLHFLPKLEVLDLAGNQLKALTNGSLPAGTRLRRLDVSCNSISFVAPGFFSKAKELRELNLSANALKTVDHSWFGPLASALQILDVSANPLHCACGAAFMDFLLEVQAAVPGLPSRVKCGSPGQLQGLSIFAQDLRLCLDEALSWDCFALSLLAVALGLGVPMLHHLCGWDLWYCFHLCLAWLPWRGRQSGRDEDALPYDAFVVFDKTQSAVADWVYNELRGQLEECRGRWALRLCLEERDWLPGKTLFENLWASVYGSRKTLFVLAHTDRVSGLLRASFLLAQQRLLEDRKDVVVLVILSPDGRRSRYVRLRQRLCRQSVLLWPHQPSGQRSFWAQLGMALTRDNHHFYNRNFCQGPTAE
The experiment in a line: TLR9 inhibition reporter assay (HEK-Blue cells, SEAP reporter). Format: cell-based. Conditions: HEK-Blue cells overexpressing human TLR9, stimulated with ODN2006 5 nM, 22 hour incubation. In short, it runs like this:
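Compound dose-response (0.05 nM–50 μM final) on agonist-stimulated human TLR9 HEK-Blue cells, 25,000/well, incubated 22 h at 37 °C, 5% CO2. Readout was secreted alkaline phosphatase under an IFN-β minimal promoter with NF-κB/AP-1 sites; inhibition expressed relative to DMSO and reference-inhibitor controls.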
(A reporter such as luciferase makes a cellular process visible.)

The target of a further assay is T2, human TLR8 (Homo sapiens, UniProt Q9NR97).
T2 construct: host or cells: HEK-Blue cells
T2 sequence (Q9NR97 27-1041): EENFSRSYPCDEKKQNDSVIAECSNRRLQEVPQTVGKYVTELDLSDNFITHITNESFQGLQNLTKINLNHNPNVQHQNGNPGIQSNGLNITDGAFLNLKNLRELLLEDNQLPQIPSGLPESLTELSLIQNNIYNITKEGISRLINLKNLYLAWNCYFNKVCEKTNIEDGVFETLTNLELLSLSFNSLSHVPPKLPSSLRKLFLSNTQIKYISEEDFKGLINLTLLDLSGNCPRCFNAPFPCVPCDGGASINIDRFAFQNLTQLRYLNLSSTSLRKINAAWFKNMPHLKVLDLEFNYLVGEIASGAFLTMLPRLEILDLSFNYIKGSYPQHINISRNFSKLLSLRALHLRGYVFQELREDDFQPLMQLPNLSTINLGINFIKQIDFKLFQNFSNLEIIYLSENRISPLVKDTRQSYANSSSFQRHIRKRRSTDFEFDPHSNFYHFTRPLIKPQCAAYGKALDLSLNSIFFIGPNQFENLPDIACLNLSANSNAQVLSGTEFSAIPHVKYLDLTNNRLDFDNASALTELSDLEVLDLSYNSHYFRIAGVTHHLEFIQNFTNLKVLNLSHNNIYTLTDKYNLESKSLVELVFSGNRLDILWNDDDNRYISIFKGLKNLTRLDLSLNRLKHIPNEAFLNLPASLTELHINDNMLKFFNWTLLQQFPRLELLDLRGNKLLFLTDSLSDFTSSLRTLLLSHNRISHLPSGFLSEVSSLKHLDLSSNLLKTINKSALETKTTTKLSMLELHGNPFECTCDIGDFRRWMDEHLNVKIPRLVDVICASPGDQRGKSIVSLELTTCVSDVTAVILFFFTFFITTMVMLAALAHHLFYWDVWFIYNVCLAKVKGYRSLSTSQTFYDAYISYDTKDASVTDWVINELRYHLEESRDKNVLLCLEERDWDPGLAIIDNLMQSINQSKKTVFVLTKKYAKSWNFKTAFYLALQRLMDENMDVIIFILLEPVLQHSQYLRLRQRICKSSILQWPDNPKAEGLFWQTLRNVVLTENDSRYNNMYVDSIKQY
Nature of the assay: TLR8 inhibition reporter assay (HEK-Blue cells, SEAP reporter). Format: cell-based. Conditions: HEK-Blue cells overexpressing human TLR8, stimulated with R848 15.9 μM, 22 hour incubation. On the procedure: TLR7/8/9 Inhibition Reporter Assays
HEK-Blue™-cells (Invivogen) overexpressing human TLR7, TLR8 or TLR9 receptors were used for screening inhibitors of these receptors using an inducible SEAP (secreted embryonic alkaline phosphatase) reporter gene under the control of the IFN-β minimal promoter fused to five NF-κB and AP-1-binding sites. Briefly, cells are seeded into Greiner 384 well plates (15000 cells per well for TLR7, 20,000 for TLR8 and 25,000 for TLR9) and then treated with test compounds in DMSO to yield a final dose response concentration range of 0.05 nM-50 μM. After a 30 minute compound pre-treatment at room temperature, the cells are then stimulated with a TLR7 ligand (gardiquimod at a final concentration of 7.5 μM), TLR8 ligand (R848 at a final concentration of 15.9 μM) or TLR9 ligand (ODN2006 at a final concentration of 5 nM) to activate NF-κB and AP-1 which induce the production of SEAP. After a 22 hour incubation at 37° C., 5% CO2, SEAP levels are determined with the addition of HEK-Blue™ Detection reagent (Invivogen), a cell culture medium that allows for detection of SEAP, according to manufacturer's specifications. The percent inhibition is determined as the % reduction in the HEK-Blue signal present in wells treated with agonist plus DMSO alone compared to wells treated with a known inhibitor.

With `Cc1nc(-c2ccc(N3CCN(C4CCOC4)CC3)cc2)cc2c1cc(-c1ccc(S(C)(=O)=O)cc1)n2C` (stereo not drawn) [Example 37, 1,4-dimethyl-2-(4-(methylsulfonyl)phenyl)-6-(4-(4-(tetrahydrofuran-3-yl)piperazin-1-yl)phenyl)-1H-pyrrolo[3,2-c]pyridine], the pIC50 on human TLR9 was 7.24; at human TLR8, under 4.60.

As for `COCCN1CCN(c2ccc(-c3cc4c(cc(-c5ccc(S(C)(=O)=O)cc5)n4C)c(C)n3)cc2)CC1` [Example 38, 6-(4-(4-(2-methoxyethyl)piperazin-1-yl)phenyl)-1,4-dimethyl-2-(4-(methylsulfonyl)phenyl)-1H-pyrrolo[3,2-c]pyridine], the pIC50 on human TLR9 was 7.25; against human TLR8 it was 4.93.

Take `Cc1nc(-c2ccc(C3CCN(CCCO)CC3)cc2)cc2c1cc(-c1ccc(S(C)(=O)=O)cc1)n2C` [Example 41, 3-(4-(4-(1,4-Dimethyl-2-(4-(methylsulfonyl)phenyl)-1H-pyrrolo[3,2-c]pyridin-6-yl)phenyl)piperidin-1-yl)propan-1-ol]: the figures for the pIC50 on human TLR9 and on human TLR8 were 6.63 and under 4.78, respectively.

With `Cc1nc(-c2cc(F)c(N3CCNCC3)cc2F)cc2c1cc(-c1ccc(S(C)(=O)=O)cc1)n2C` [Example 43, 6-(2,5-Difluoro-4-(piperazin-1-yl)phenyl)-1,4-dimethyl-2-(4-(methylsulfonyl)phenyl)-1H-pyrrolo[3,2-c]pyridine], the pIC50 against human TLR9 is 7.10; at human TLR8, 5.57.

`Cc1nc(-c2ccc(CN3CCN(CC(C)(C)O)CC3)cc2)cc2c1cc(-c1ccc(S(C)(=O)=O)cc1)n2C` [Example 44, 1-(4-(4-(1,4-Dimethyl-2-(4-(methylsulfonyl)phenyl)-1H-pyrrolo[3,2-c]pyridin-6-yl)benzyl)piperazin-1-yl)-2-methylpropan-2-ol]: the pIC50 against human TLR9 was 7.02; on human TLR8, 5.92.

For `Cc1nc(-c2ccc(N3CCN(CCCO)CC3)cc2)cc2c1cc(-c1ccc(S(=O)(=O)C3CC3)cc1)n2C` [Example 47, 3-(4-(4-(2-(4-(cyclopropylsulfonyl)phenyl)-1,4-dimethyl-1H-pyrrolo[3,2-c]pyridin-6-yl)phenyl)piperazin-1-yl)propan-1-ol], the pIC50 was 7.11 against human TLR9 and under 4.60 against human TLR8.

`COCCN1CCN(c2ccc(-c3cc4c(cc(-c5ccc(S(=O)(=O)C6CC6)cc5)n4C)c(C)n3)cc2)CC1` [Example 48, 2-(4-(cyclopropylsulfonyl)phenyl)-6-(4-(4-(2-methoxyethyl)piperazin-1-yl)phenyl)-1,4-dimethyl-1H-pyrrolo[3,2-c]pyridine]: the figures for the pIC50 against human TLR9 and against human TLR8 were 6.41 and under 4.60, respectively.

For `CC(C)CN1CCN(c2ccc(-c3cc4c(cn3)cc(-c3ccc(S(C)(=O)=O)cc3)n4C)cc2)CC1` [Example 53, 6-(4-(4-isobutylpiperazin-1-yl)phenyl)-1-methyl-2-(4-(methylsulfonyl)phenyl)-1H-pyrrolo[3,2-c]pyridine], the results for the pIC50 on human TLR9 and at human TLR8 were 7.68 and under 4.30, respectively.

Take `CC(C)N1CCN(c2ccc(-c3cc4c(cn3)cc(-c3ccc(S(C)(=O)=O)cc3)n4C)cc2)CC1` [Example 54, 6-(4-(4-isopropylpiperazin-1-yl)phenyl)-1-methyl-2-(4-(methylsulfonyl)phenyl)-1H-pyrrolo[3,2-c]pyridine]: the figures for the pIC50 against human TLR9 and on human TLR8 were 7.38 and under 4.30, respectively.

Regarding `Cc1nc(-c2ccc(N3CCN(CCCO)CC3)c(F)c2F)cc2c1cc(-c1ccc(S(C)(=O)=O)cc1)n2C` [Example 55, 3-(4-(4-(1,4-dimethyl-2-(4-(methylsulfonyl)phenyl)-1H-pyrrolo[3,2-c]pyridin-6-yl)-2,3-difluorophenyl)piperazin-1-yl)propan-1-ol], the pIC50 at human TLR9 is 5.55; at human TLR8 it was under 4.30.

For `Cc1nc(-c2cc(F)c(N3CCN(CCCO)CC3)cc2F)cc2c1cc(-c1ccc(S(C)(=O)=O)cc1)n2C` [Example 56, 3-(4-(4-(1,4-dimethyl-2-(4-(methylsulfonyl)phenyl)-1H-pyrrolo[3,2-c]pyridin-6-yl)-2,5-difluorophenyl)piperazin-1-yl)propan-1-ol], the figures for the pIC50 at human TLR9 and at human TLR8 were 6.57 and 4.88, respectively.

As for `Cc1nc(-c2ccc(CN3CCN(CC(C)C)CC3)cc2)cc2c1cc(-c1ccc(S(C)(=O)=O)cc1)n2C` [Example 57, 6-(4-((4-isobutylpiperazin-1-yl)methyl)phenyl)-1,4-dimethyl-2-(4-(methylsulfonyl)phenyl)-1H-pyrrolo[3,2-c]pyridine], the figures for the pIC50 on human TLR9 and on human TLR8 were 7.34 and 5.12, respectively.

As to `Cc1nc(-c2ccc(CN3CCN(CCCO)CC3)cc2)cc2c1cc(-c1ccc(S(C)(=O)=O)cc1)n2C` [Example 58, 3-(4-(4-(1,4-dimethyl-2-(4-(methylsulfonyl)phenyl)-1H-pyrrolo[3,2-c]pyridin-6-yl)benzyl)piperazin-1-yl)propan-1-ol], the negative logarithm of the IC50 (pIC50) at human TLR9 was 6.97; at human TLR8, 4.75.

Regarding `Cc1nc(-c2ccc(CN3CCC(C)(O)CC3)cc2)cc2c1cc(-c1ccc(S(C)(=O)=O)cc1)n2C` [Example 59, 1-(4-(1,4-dimethyl-2-(4-(methylsulfonyl)phenyl)-1H-pyrrolo[3,2-c]pyridin-6-yl)benzyl)-4-methylpiperidin-4-ol], the pIC50 is 6.11 against human TLR9 and 4.76 on human TLR8.

Regarding `Cc1nc(-c2ccc(CN3CCN(CCC(C)(C)O)CC3)cc2)cc2c1cc(-c1ccc(S(C)(=O)=O)cc1)n2C` [Example 60, 4-(4-(4-(1,4-dimethyl-2-(4-(methylsulfonyl)phenyl)-1H-pyrrolo[3,2-c]pyridin-6-yl)benzyl)piperazin-1-yl)-2-methylbutan-2-ol], the pIC50 against human TLR9 is 7.19; at human TLR8 it was 5.34.
